Assays:
[1] = target: human NET (Homo sapiens, UniProt P23975); conditions: relative to quetiapine; cited from earlier work
[2] = target: T1, 5-HT1A receptor (Homo sapiens, UniProt P08908); conditions: relative to quetiapine; cited from earlier work
T1 sequence (P08908 1-422): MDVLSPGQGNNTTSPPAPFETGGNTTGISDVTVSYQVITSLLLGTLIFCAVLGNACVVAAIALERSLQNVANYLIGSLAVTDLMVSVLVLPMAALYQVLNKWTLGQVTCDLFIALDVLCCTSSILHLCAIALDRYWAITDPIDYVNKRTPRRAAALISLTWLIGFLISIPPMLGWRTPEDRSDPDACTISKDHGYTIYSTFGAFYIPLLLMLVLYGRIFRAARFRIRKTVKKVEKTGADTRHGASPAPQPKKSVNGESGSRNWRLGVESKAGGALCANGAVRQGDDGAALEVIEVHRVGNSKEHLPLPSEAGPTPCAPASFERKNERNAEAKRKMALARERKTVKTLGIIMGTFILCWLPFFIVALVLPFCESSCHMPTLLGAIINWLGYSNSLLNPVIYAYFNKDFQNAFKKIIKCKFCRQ

[3] = cited from earlier work
[4] = system: leptin; conditions: chronic oral administration for a period of 6 weeks; cited from earlier work
[5] = to be dosed efficiently via oral gavage in rats

human NET, sequence (P23975 whole entry): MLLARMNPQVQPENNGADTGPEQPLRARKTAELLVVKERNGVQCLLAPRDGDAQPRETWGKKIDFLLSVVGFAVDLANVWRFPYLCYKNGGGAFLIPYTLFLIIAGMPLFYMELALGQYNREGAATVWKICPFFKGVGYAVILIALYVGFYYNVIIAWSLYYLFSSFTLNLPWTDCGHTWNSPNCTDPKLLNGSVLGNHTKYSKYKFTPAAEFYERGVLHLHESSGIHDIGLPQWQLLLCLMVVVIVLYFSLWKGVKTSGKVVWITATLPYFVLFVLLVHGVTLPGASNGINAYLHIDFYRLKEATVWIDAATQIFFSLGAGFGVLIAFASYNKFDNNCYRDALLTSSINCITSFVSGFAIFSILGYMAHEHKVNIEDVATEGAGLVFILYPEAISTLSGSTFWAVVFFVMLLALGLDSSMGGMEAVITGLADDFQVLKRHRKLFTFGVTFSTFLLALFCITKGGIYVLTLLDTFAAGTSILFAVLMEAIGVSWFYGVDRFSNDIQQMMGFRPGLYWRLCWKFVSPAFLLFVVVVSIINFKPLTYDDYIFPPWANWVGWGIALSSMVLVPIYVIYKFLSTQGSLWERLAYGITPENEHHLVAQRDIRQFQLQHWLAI

Compound: c1ccc2c(c1)N=C(N1CCNCC1)c1ccccc1S2 [N-desalkyl-quetiapine, 4-(dibenzo[b,f][1,4]thiazepin-11-yl)piperazine]
- higher avidity for inhibiting human NET than quetiapine itself [1]: about 100 fold
- more potent than quetiapine at the 5-HT1A receptor [2]: 10 fold

Compound: OCCOCCN1CCN(C2=Nc3ccccc3Sc3ccccc32)CC1 [quetiapine, 2-(2-(4-(dibenzo[b,f][1,4]thiazepin-11-yl)piperazin-1-yl)ethoxy)ethanol]
- Absolute bioavailability ([3]; estimated): 9%
- terminal half-life time for the drug's elimination ([3]; in vivo): about 7 hours
- increase in leptin release [4]: about 37%

Compound: OCCOCCN1CCN(C2=Nc3ccccc3Sc3ccccc32)CC1 [fumarate]
- solubility for oral gavage dosing [5]: not soluble enough
